Legend:
[1] = target: T1, TrkB:PLCγ1 colocalization (Rattus norvegicus, UniProt Q63604); test: dSTORM/TIRF single-molecule colocalization in dendritic spines of hippocampal neurons; format: cell-based; settings: 100 nM, 1 h; for Manders colocalization coefficient, group mean (5b) / Manders colocalization coefficient, group mean (5c): averaged per neuron; for Manders colocalization coefficient, group mean (5b): vehicle 0.2835; for Manders colocalization coefficient, group mean (5c): vehicle 0.3968
T1 construct: endogenous in cells; host or cells: rat hippocampal neuronal cultures (DIV21)
Description: Then, dishes were fixed with 4% paraformaldehyde (PFA) containing 0.1 µm TetraSpeck beads (Invitrogen, T7279; 1:100). After washing with PBS, dishes were incubated with the blocking buffer (0.1% Triton X-100, 0.05% Tween-20, 10% normal donkey serum, 1% BSA and 0.1% gelatin in PBS) for 1 h at room temperature. Next, dishes were incubated with goat anti-TrkB (R&D Systems, AF1494; 1:100) and rabbit anti-PLCγ1 (Cell Signaling Technologies, 5690S; 1:100) primary antibodies diluted in detergent-free blocking buffer overnight at 4 °C. After washing with PBS, dishes were incubated with Alexa Fluor 647-conjugated donkey anti-goat (Invitrogen, A32849; 1:500) and CF568-conjugated donkey anti-rabbit (Biotium, 20098; 1:500) secondary antibodies in PBS. Dishes were washed and stored in PBS until imaging. For dSTORM/TIRF, we used fresh blinking buffer (0.5 mg ml^−1 glucose oxidase, 40 µg ml^−1 catalase, 10% glucose, 10 mM NaCl, 10 mM cysteamine and 50 mM Tris–HCl, pH 8.0). We used a Nikon Eclipse Ti-E N-STORM/TIRF microscope equipped with an ApoTIRF 100×/1.49 numerical aperture (NA) objective, a Perfect Focus System for Z focus stabilization, an Andor iXon + 897 back-illuminated EMCCD camera (512 × 512), laser lines 405 nm (100 mW), 561 nm (150 mW) and 647 nm (300 mW) and a 405/488/561/647 nm laser quad band filter cube. Image acquisition was performed with the central 256 × 256 pixels and a total of 20,000 frames (exposure time of 15 ms) for both channels using the NIS-Elements Advanced Research software (Nikon). The 405 nm laser was progressively raised to maintain a constant number of localizations per frame. After chromatic aberration correction by correlation with the fluorescent bead fiducials, fitting of the blinking events to build the single-molecule localization coordinate map and drift correction were performed using the Huygens Localizer 21.04 software (Scientific Volume Imaging). Before identifying particles, the first 512 frames of each channel were discarded, a temporal filter length (factor 30) was applied to determine background signal, and data were prefiltered through the standard deviation of a Gaussian filter (σ = 1.0). Next, a threshold calculated from the standard deviation of unfiltered data was multiplied by a factor of 0.75 for the red and 1.5 for the far-red channels and applied to distinguish particles from the background. Pixels from filtered data with values larger than the threshold were considered as candidates for single-molecule localizations. Pixels in filtered data with higher values than surrounding pixels were detected as local maxima. The least-squares fitting was applied for subpixel localization of detected particles, with a fixed full width at half maximum of the Gaussian point spread function of 256 nm. Finally, the resulting single-molecule localization coordinate maps were analyzed with Coloc-Tesseler 1.0 (ref. [79]) by an experimenter blinded to treatment to compute the Manders colocalization coefficients of TrkB (M^TrkB) and PLCγ1 (M^PLCγ1) in dendritic spines on the basis of their overlapping Voronoi diagrams.

TrkB = target: T2, TrkB (Rattus norvegicus, UniProt Q63604); test: Competition binding with biotinylated R,R-HNK; settings: ext fig 1g
T2 construct: expressed in transfected cells; host or cells: HEK293T
Description: Binding assays were performed as previously described with minor modifications. […] Samples from mouse embryo (E18) brains were also lysed, vortexed, sonicated and centrifuged for binding assays. Plates were then washed with PBS. […] For the competition binding assays with biotinylated R,R-HNK, the amino-biotinylation of R,R-HNK was performed using a commercial kit (Thermo Scientific, EZ-Link NHS-PEG4 Biotinylation Kit, 21455) and the reaction monitored by MS. A mixture of biotinylated R,R-HNK (10 µM) and unlabeled compounds (1 pM to 10 µM) in PBS was added to the 96-well plates containing the immunoprecipitated TrkB and incubated for 1 h at room temperature. […] Luminescence was determined via streptavidin conjugated with horseradish peroxidase (HRP; Thermo Fisher Scientific, 21126; 1:5,000, 1 h at room temperature) in reaction with the Pierce ECL substrate (Thermo Fisher Scientific, 32106). Luminescence from blank wells that contained all reagents but the sample lysates was used to determine nonspecific binding. To obtain the binding curves, results from binding assays were fitted to the equation of specific binding with Hill slope from GraphPad Prism 9.2. To calculate koff values, results were fitted to the equation of dissociation of one phase exponential decay from GraphPad Prism 9.2.

T2 sequence (Q63604 32-821): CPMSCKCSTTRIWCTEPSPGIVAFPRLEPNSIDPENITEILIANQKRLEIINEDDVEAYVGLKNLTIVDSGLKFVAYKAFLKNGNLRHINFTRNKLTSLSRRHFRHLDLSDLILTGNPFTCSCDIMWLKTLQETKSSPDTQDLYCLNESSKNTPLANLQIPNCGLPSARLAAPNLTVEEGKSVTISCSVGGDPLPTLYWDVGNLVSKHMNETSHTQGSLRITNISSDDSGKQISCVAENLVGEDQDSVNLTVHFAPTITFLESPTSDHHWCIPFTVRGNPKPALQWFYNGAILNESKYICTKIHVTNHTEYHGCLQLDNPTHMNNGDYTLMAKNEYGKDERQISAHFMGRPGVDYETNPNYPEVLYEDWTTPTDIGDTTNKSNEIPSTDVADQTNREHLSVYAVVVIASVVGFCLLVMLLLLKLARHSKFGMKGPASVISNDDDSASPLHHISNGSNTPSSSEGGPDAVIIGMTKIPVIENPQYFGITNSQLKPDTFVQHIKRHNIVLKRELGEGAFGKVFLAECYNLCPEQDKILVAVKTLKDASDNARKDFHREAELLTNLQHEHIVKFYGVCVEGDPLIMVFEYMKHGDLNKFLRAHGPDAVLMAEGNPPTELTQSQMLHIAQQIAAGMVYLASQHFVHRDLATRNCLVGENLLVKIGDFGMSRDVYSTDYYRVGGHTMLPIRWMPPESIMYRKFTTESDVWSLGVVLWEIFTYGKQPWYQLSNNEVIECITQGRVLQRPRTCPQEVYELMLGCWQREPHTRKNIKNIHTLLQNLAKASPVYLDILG
T1 sequence (Q63604 32-821): as above

Row | SMILES | TrkB:PLCγ1 colocalization in dendritic spines [1] | Manders colocalization coefficient, group mean (5b) [1] | Manders colocalization coefficient, group mean (5c) [1] | K (one phase decay, best-fit) (TrkB) | Plateau (one phase decay, best-fit) (TrkB) | Span (one phase decay, best-fit) (TrkB) | Tau (one phase decay, best-fit) (TrkB) | Y0 (one phase decay, best-fit) (TrkB)
1 | CCN(CC)C(=O)C1C=C2c3cccc4[nH]cc(c34)CC2N(C)C1 (stereo not shown) [LSD, lysergic acid diethylamide] | increase TrkB:PLCγ1 colocalization in dendritic spines | 0.6227 | 0.6899 | 638387713 | 36.42 | 48.28 | 1.57E-09 | 84.7
2 | CN(C)CCc1c[nH]c2cccc(O)c12 [PSI, psilocin] | increase TrkB:PLCγ1 colocalization in dendritic spines | 0.5082 | 0.7477 | 89050556 | 38.6 | 50.23 | 1.12E-08 | 88.84

Source: paper PMC10244169, “Psychedelics promote plasticity by directly binding to BDNF receptor TrkB” (Nature Neuroscience, 2023)
